Laboratory results as given in patent US20230023026A1, “METHODS FOR TREATMENT OF DAMAGED BILIARY DUCT” (Mor Research Applications Ltd., priority 2020, published 2023).
Entries after “also recorded” stand apart in the source; their conditions may differ.

What was measured:
[1] = test system: EHBD explants from Mdr2−/− mice; assay: Ex-vivo bile duct explant culture of Mdr2−/− EHBDs treated with L-NAC (H&E, K19/ZO-1 immunostaining, DAPI); type: cell-based, mouse
Procedure: Intact extrahepatic bile ducts (EHBDs) from 2-week (N≥12) and 16-week (N≥5) old mice were dissected, placed in ice-cold V-7 cold preservation buffer (Vitron) followed by incubation in cholangiocyte medium (also termed herein “BEC medium”), according to a modification of the protocol described by Karjoo and Wells (Isolation of neonatal extrahepatic cholangiocytes. J. Vis. Exp. 2014). Ducts were placed on roller inserts, treated with N-Acetyl-L-cysteine (L-NAC) and other compounds as noted below, and cultured in a high oxygenation Vitron Dynamic Organ Culture Incubator at 37° C., in 95% O2 and 5% CO2, for 1-3 days. In the incubator (designed to optimally incubate tissue slices), the explants rotated and were exposed to alternating periods in medium and 95% oxygen/5% CO2. Thin slices of tissue remained viable without visible damage or evidence of necrosis or apoptosis for at least 3 days.
1. Histological H&E staining of cells of ducts tissue was performed according to standard staining protocol, using two dyes: the basic dye haemotoxylin and the acidic dye eosin. Eosin reacted with cationic or basic components (also termed “acidophilic”) and stained red or pink acidophilic structures (e.g., cytoplasmic proteins, intracellular membranes, and extracellular fibers). Haematoxylin, reacted with anionic or acidic components (also termed “basophilic”) in cells and, when used in combination with aluminum ions (Al^3+), stained purplish blue basophilic structures (e.g., the nucleic acids in the nucleus and parts of the cytoplasm that contain RNA (e.g., ribosomes and the rough endoplasmic reticulum)). EHBDs were fixed in 4% paraformaldehyde (PFA) and embedded in paraffin, then sections (4-μm thick) were cut and stained with H&E.
3. Immunostaining or immunohistochemistry (IHC), which combines anatomical, immunological and biochemical techniques, was conducted in order to image discrete components in EHBDs tissues by using appropriately labeled antibodies that bind specifically to their target antigens in situ Immunohistochemistry made it possible to visualize the high-resolution distribution and localization of specific cellular components within cholangiocytes and within their proper histological context Immunostaining methodology included two main steps: sample preparation and sample staining. In the preparation step, ducts were fixed at 4% PFA for the preservation of cell morphology and tissue architecture. Thin sections of tissues (4-μm thick) attached to individual glass slides where then immunostained as described e.g., in Dipaola et al., 2013 (Hepatology 58:1486-1496, 2013), using antibodies against the cholangiocyte marker keratin 19 (K19, 1:10, Developmental Studies Hybridoma Bank, TROMAIII) and ZO-1 tight junction protein (anti-ZO1 antibody ab96587; Abcam).
4. […]

Mdr2−/− mice = assay: In vivo treatment of Mdr2−/− mice with L-NAC in drinking water, liver histology (H&E, Sirius Red); parameters: species or system mouse; conditions: 4-month old Mdr2−/− mice, 30 gr/L L-NAC in drinking water for 3 weeks
Excerpt: The homozygote, multidrug resistance protein 2 knockout mouse (Mdr2KO or Mdr2^−/−, also known as Abcb4^−/−) lacks the protein MDR2, a canalicular phospholipid flippase that causes a complete absence of phosphatidylcholine in bile. Mdr2^−/− mice are a well-established model for biliary ducts diseases resulting from, or associated with, highly toxic bile. Multidrug resistance P-glycoproteins, Mdr2 in mouse and MDR3 in human, are choline-containing phospholipid phosphatidylcholine (PC) transporters. In the liver, Mdr2/MDR3 are involved in the translocation of PC from the inner leaflet to the outer leaflet of the canalicular membrane of hepatocytes for direct extraction by bile acids. Bile acids and PC are essential components in the bile that form bile acid containing micelles to thereby reduce the toxic detergent activity of bile acid for hepatocytes and cholangiocytes and to establish physiological bile flow. Mdr2 knockout mouse successively develops liver inflammation, hepatic fibrosis, and hepatocellular carcinoma (HCC) at late ages. The pathogenesis in Mdr2^−/− mice is commonly considered to be caused by increased levels of free toxic bile acids in the biliary canaliculus, which damages hepatocytes and cholangiocytes and provokes liver inflammation. This cholangiopathy is similar to human PSC. The wild type and Mdr2 knockout mice used in embodiments described herein are male and female mice of FVB genetic background (FVB/N and FVB/Mdr2^−/− mice, respectively). All mice were maintained under specific pathogen-free conditions with a 12-hour-light-dark cycle and permitted ad libitum consumption of water and a standard chow. FVB/Mdr2^−/− mice are reproducible model of spontaneously progressive chronic biliary liver disease associated with fibrosis, with histological lesions closely resembling human PSC. Though the Mdr2^−/− mouse is well-established for the investigation of PSC, little is known about EHBD injury in this model. 1. […] The liver repair effect in Mdr2^−/− mice treated with L-NAC was assessed. […]

Compound: CC(=O)N[C@@H](CS)C(=O)O [L-NAC, N-acetyl-L-cysteine]
- histological damage, including coarse chromatin and nuclear crowding (H&E) ([1]; EHBDs from 2-week old Mdr2−/− mice, 5 μM L-NAC in fresh BEC medium, 24 hours): improved
- expression of the tight junction protein ZO-1 (immunostaining) ([1]; EHBDs from 2-week old Mdr2−/− mice, 5 μM L-NAC, 24 hours): restored apical tight junction expression
- restoration of the apical tight junction ZO-1 (immunostaining) ([1]; EHBDs from 16-week old Mdr2−/− mice, 5 μM L-NAC, 24 hours): not seen; also recorded: poor ZO-1 restoration
- duct architecture / morphology (H&E) ([1]; Mdr2−/− EHBD explants, L-NAC and fresh BEC media for 24 hours): improved duct architecture with a more normal appearing columnar epithelium; also recorded: substantial morphological recovery
- inflammatory cell infiltration around the portal areas (H&E) (Mdr2−/− mice): reduction in inflammatory cell infiltration
- portal fibrosis in liver (H&E) (Mdr2−/− mice): reduced portal fibrosis
- liver fibrosis (Sirius Red staining) (Mdr2−/− mice; vs untreated mouse): reduction in liver fibrosis
